From patent US10172905B1, “Treatment of protein degradation disorders” (President and Fellows of Harvard College, priority 2005, dated 2019)
“Also recorded” adds a separate entry of the source.

Key:
[1] = tested on: MM patient plasma cells from BM (BMPCs); assay: MTT cytotoxicity assay in MM patient plasma cells; type: cell-based, human; conditions: tubacin 5 μM with bortezomib, 24 h
Description: Dex-sensitive (MM.1S) and resistant (MM.1R) human MM cell lines were kindly provided by Dr. Steven Rosen (Northwestern University, Chicago, Ill.). RPMI8226 and U266 human MM cell lines were obtained from American Type Culture Collection (Rockville, Md.). IL-6 dependent INA-6 cell line was kindly provided by Dr M Gramatzki (Erlangen, Germany). Melphalan-resistant RPMI-LR5 and doxorubicin-resistant RPMI-Dox40 cell lines were provided by Dr William Dalton (Lee Moffitt Cancer Center, Tampa, Fla.). All MM cell lines were cultured in RPMI-1640 containing 10% fetal bovine serum (FBS, Sigma Chemical Co., St. Louis, Mo.), […] L-glutamine, 100 U/ml penicillin, and 100 μg/ml streptomycin (GIBCO, Grand Island, N.Y.). INA-6 cells were maintained with addition of IL-6 (1 ng/ml). MM patient plasma cells were purified from bone marrow (BM) aspirates by negative selection using an antibody cocktail (RosetteSep Separation System, StemCell Technologies, Vancouver, Canada), as previously described (31). The purity of MM cells was >90%, as confirmed by flow cytometric analysis using anti-CD138 Ab (BD Pharmingen, San Diego, Calif.). […]
The inhibitory effect of bortezomib and/or tubacin on MM cell growth was assessed by measuring 3-(4,5-dimethylthiazol-2-yl)-2,5-diphenyl tetrazolium bromide (MTT) dye absorbance, as described previously (33). […]

[2] = tested on: breast cancer cells; assay: Synergy of bortezomib and tubacin in breast cancer; type: cell-based
[3] = tested on: MM.1S and RPMI8226 cells; assay: [3H]-thymidine uptake of MM cells adherent to BMSCs; type: cell-based, human
Protocol: […] DNA synthesis was measured as described above.
After treatment, DNA synthesis was measured by [^3H]-thymidine (Perkin Elmer, Boston Mass.) uptake, as previously described (44). All experiments were performed in quadruplicate.

[4] = tested on: MM cell lines; assay: MTT growth inhibition / cytotoxicity assay in MM cell lines; type: cell-based, human; conditions: for growth inhibitory / cytotoxic effect as single agent: MM cell lines, MTT and 3H-thymidine uptake
Protocol: The inhibitory effect of bortezomib and/or tubacin on MM cell growth was assessed by measuring 3-(4,5-dimethylthiazol-2-yl)-2,5-diphenyl tetrazolium bromide (MTT) dye absorbance, as described previously (33). […] All experiments were performed in quadruplicate.
These cells were treated with tubacin (1.25-20 μM) for 48 h (FIG. 2A) and 72 h (FIG. 2B), and cytotoxicity was assessed by MTT assay, as describe.

[5] = tested on: rat astrocytes and striatal neurons; assay: Russell body formation in rat astrocytes and striatal neurons; type: cell-based; conditions: previous experiments, comparable concentrations
[6] = tested on: polyubiquitinated proteins; assay: Western blotting with anti-Ub Ab; type: cell-based, human; conditions: tubacin alone
Protocol: Cells cultured with tubacin and/or bortezomib were harvested; washed, and lysed using lysis buffer: 50 mM Tris-HCl (pH 7.4), 150 mM NaCl, 1% NP-40, 5 mM EDTA, 5 mM NaF, 1 mM Na3VO4, 1 mM PMSF, 5 μg/ml leupeptine, and 5 μg/ml aprotinin. Whole cell lysates were subjected to SDS-PAGE, transferred to nitrocellulose membrane (Bio-Rad Laboratories, Hercules, Calif.), and immunoblotted with specific Abs (31). Western blotting was done using anti-HDAC6, acetylated lysine, acetylated histone H3, acetylated histone H4, ubiquitin (Ub), phospho-SAPK (JNK), caspase-8 caspase-9, caspase-3, and PARP Abs (Cell Signaling, Beverly, Mass.); with anti-α-tubulin Ab (Santa Cruz Biotechnology, Santa Cruz, Calif.); as well as with anti-dynein Ab (Sigma, Saint Louis, Mo.). For immunoprecipitation, whole cell lysates were incubated with anti-Ub or dynein Abs overnight at 4° C., and then incubated with protein A/G PLUS-Agarose (Santa Cruz Biotechnology) for 2 h at 4° C., as in our prior study (31). Immunoprecipitates were then subjected to Western blotting for detection of HDAC6 and dynein.

Structure (SMILES): O=C(CCCCCCC(=O)Nc1ccc([C@H]2O[C@@H](CSc3nc(-c4ccccc4)c(-c4ccccc4)o3)C[C@@H](c3ccc(CO)cc3)O2)cc1)NO [tubacin]
- effect of tubacin on bortezomib (Velcade)-induced cytotoxicity in patient MM cells [1]: markedly augmented by tubacin; also recorded: significantly (p<0.01) augments cytotoxicity triggered by Velcade; also recorded: synergistically enhances bortezomib-induced cytotoxicity
- synergy with bortezomib in breast cancer [2]: synergy
- BMSC-induced [3H]-thymidine uptake / MM cell growth with BMSCs, single agent ([3]; MM cells adherent to BMSCs, 24 h): inhibits BMSC-induced [^3H]-thymidine uptake in a dose-dependent fashion; also recorded: significantly inhibits MM.1S cell growth even in the presence of BMSCs; also recorded: inhibits paracrine MM cell growth
- effect of tubacin on bortezomib-induced inhibition of [3H]-thymidine uptake ([3]; adherent MM.1S and RPMI8226 cells, tubacin with bortezomib): significantly enhances bortezomib-induced inhibition of [^3H]-thymidine uptake; also recorded: further augmented cytotoxicity of Velcade
- IC50 ([4]; Homo sapiens, 72 h, drug-sensitive and -resistant MM cell lines): 5 to 20 µM
- growth inhibitory / cytotoxic effect as single agent [4]: marked anti-proliferative, proapoptotic effects; also recorded: dose-dependent growth inhibitory effect
- growth inhibitory / cytotoxic effect as single agent ([4]; listed as Tubacin): cytotoxic
- effect of tubacin on bortezomib (Velcade)-induced cytotoxicity ([4]; MM.1S and RPMI8226 cells, 24 h, MTT): synergistically enhances bortezomib-induced cytotoxicity; also recorded: Synergy; also recorded: potently sensitizes myeloma cells to subtoxic concentrations of bortezomib; also recorded: significantly (p<0.01) augmented cytotoxicity triggered by Velcade; also recorded: synergistic anti-tumor activity
- Russell body formation [5]: features suggestive of Russell body formation
- polyubiquitinated proteins ([6]; MM.1S cells): no significant change
- polyubiquitinated proteins ([6]; RPMI8226 cells): significantly accumulate; also recorded: increase in cellular ubiquitinated proteins
